Values of other authors, collected in patent US6476058B2 (Isotechnika, Inc., priority 1998, dated 2002).

Experiments:
[1] = test system: patients with chronic stable angina
[2] = in vivo
human = details: racemic mixture administered to a human

For `CCOC(=O)C1=C(COCCN)NC(C)=C(C(=O)OC)C1c1ccccc1Cl` (racemic) [amlodipine, (R.S.) 3-ethyl-5-1-methyl-2-(2-aminoethoxymethyl)-4-(2-chlorophenyl)-1,4-dihydro-6-methyl-3,5-pyridinedicarboxylate], the “reduction in blood pressures” value [1] is listed as 4/1, the serum calcium concentration [2] is listed as “not affected” and the “metabolites excreted in the urine” value (in vivo) is listed as 60%. The “parent compound excreted in the urine” value (in vivo) was 10%, the “bioavailability in the presence of food” value (oral, food) was “not altered” and the “influence of renal impairment on pharmacokinetics” value (renal impairment) was “not significantly influenced”. For the same compound, the adverse effects (human) was “headache and edema, dizziness, flushing, palpitation, fatigue, nausea, abdominal pain and somnolence”.
